Laboratory results: US11691949B2, “Quinoline sulfonamide compounds and their use as antibacterial agents” (OTAGO INNOVATION LIMITED, priority 2017, dated 2023)
Converted amounts (≈) assume the structure as drawn. Read-outs that look alike come from different tables or passages of the source.

Legend:
Format in all cases: cell-based
S. uberis ATCC 19436 [1] = assay: MIC by broth microdilution, S. uberis; settings: Streptococcus uberis
Procedure, shortened: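 Streptococcus uberis ATCC 19436 was tested in Todd Hewitt Broth by broth microdilution in 96-well flat bottom plates, in biological triplicate. Overnight cells were diluted to OD600 of approximately 0.025, giving about 5×10^5 cfu/mL in the wells. Compounds were serially diluted two-fold to 200 μl, incubated 24 h at 37° C. and 200 rpm, and the MIC was taken from OD600.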

S. aureus ATCC 6538 [2] = assay: MIC by broth microdilution, S. aureus; settings: Staphylococcus aureus
Procedure, shortened: (§1)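 Media: TSB or CAMHB for S. aureus, LB or CAMHB for E. coli, with zinc sulphate to 50 μM final where required. Cells at ~5×10^5 cfu/mL met two-fold compound series; growth was scored by OD600 after 24 h shaking at 37° C.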

E. coli ATCC 10596 = assay: MIC by broth microdilution, E. coli; settings: Escherichia coli
Procedure, shortened: as §1

S. uberis ATCC 19436 [3] = assay: MBC by Miles-Misra drop-plate method, S. uberis; settings: Streptococcus uberis
Procedure: (§2) Antibacterial susceptibility testing was performed in triplicate (biological) by measuring minimum inhibitory concentrations (MICs) by broth microdilution in 96-well flat bottom microtiter plates (ThermoFisher Scientific, New Zealand). S. uberis ATCC 19436, S. aureus ATCC 6538, or E. coli ATCC 10596 cells grown overnight were diluted to an OD600 of approximately 0.025, so that the final concentration of cells in the MIC assay was approximately 5×10^5 cfu/mL in media as follows: S. uberis; Todd Hewitt Broth (THB), S. aureus; Tryptic Soy Broth (TSB) and Cation Adjusted Muller Hinton Broth (CAMHB), and E. coli; Lysogeny Borth (LB) and CAMHB, before being dispensed into microtiter wells. As required additional sterile Zinc Sulphate (Heptahydrate) was supplemented into the media, so the final concentration was 50 μM. Test compounds were added to starting wells and two-fold serial dilutions were undertaken to generate a range of inhibitor concentrations at a final volume of 200 μl. Media and test compound-free (untreated) controls were included in each microtiter plate in triplicate. After 24 h incubation at 37° C. and 200 rpm, the OD600 of wells were read using a Varioskan Flash plate reader (ThermoFisher Scientific, New Zealand). The MIC was reported as the lowest concentration of the test compound for which no growth occurred, as determined by OD600 readings. The minimum bactericidal concentration (MBC) was determined using the Miles-Misra drop-plate method to measure the viability of cells in response to test compound challenge.

S. aureus ATCC 6538 [4] = assay: MBC by Miles-Misra drop-plate method, S. aureus; settings: Staphylococcus aureus
Procedure: as §2

E. coli ATCC 10536 = assay: MBC by Miles-Misra drop-plate method, E. coli; settings: Escherichia coli
Procedure: as §2

[5] = ATCC19436, No Zinc, read-out: S. uberis ATCC 19436 MIC
[6] = ATCC19436, Zinc (50 μM), read-out: S. uberis ATCC 19436 MIC
[7] = ATCC6538, No Zinc, read-out: S. aureus ATCC 6538 MIC
[8] = ATCC6538, Zinc (50 μM), read-out: S. aureus ATCC 6538 MIC
[9] = ATCC 10536 / ATCC 10596, No Zinc, read-out: E. coli ATCC 10536 MIC
[10] = ATCC 10536 / ATCC 10596, Zinc (50 μM), read-out: E. coli ATCC 10536 MIC
[11] = ATCC19436, No Zinc, read-out: S. uberis ATCC 19436 MBC
[12] = ATCC19436, Zinc (50 μM), read-out: S. uberis ATCC 19436 MBC
[13] = ATCC6538, No Zinc, read-out: S. aureus ATCC 6538 MBC
[14] = ATCC6538, Zinc (50 μM), read-out: S. aureus ATCC 6538 MBC
[15] = ATCC10536, No Zinc, read-out: E. coli ATCC 10536 MBC
[16] = ATCC10536, Zinc (50 μM), read-out: E. coli ATCC 10536 MBC

| SMILES | MIC (S. uberis ATCC 19436 [1]; [5]) [µg/mL] | MIC (S. uberis ATCC 19436 [1]; [6]) [µg/mL] | MIC (S. aureus ATCC 6538 [2]; [7]) [µg/mL] | MIC (S. aureus ATCC 6538 [2]; [8]) [µg/mL] | MIC (E. coli ATCC 10596; [9]) [µg/mL] | MIC (E. coli ATCC 10596; [10]) [µg/mL] | MBC (S. uberis ATCC 19436 [3]; [11]) [µg/mL] | MBC (S. uberis ATCC 19436 [3]; [12]) [µg/mL] | MBC (S. aureus ATCC 6538 [4]; [13]) [µg/mL] | MBC (S. aureus ATCC 6538 [4]; [14]) [µg/mL] | MBC (E. coli ATCC 10536; [15]) [µg/mL] | MBC (E. coli ATCC 10536; [16]) [µg/mL] | other results |
| --- | --- | --- | --- | --- | --- | --- | --- | --- | --- | --- | --- | --- | --- |
| CN(C)Cc1ccc2cccc(NS(=O)(=O)c3ccc(Cl)cc3Cl)c2n1 [ZDR335, 2,4-Dichloro-N-(2-((dimethylamino)methyl)quinolin-8-yl)benzenesulfonamide] | 64 (≈ 156 µM) | 0.0312 (≈ 0.076 µM) | 32 (≈ 78 µM) | 8 (≈ 19.5 µM) | > 256 | > 256 | 64 (≈ 156 µM) | 2 (≈ 4.87 µM) | > 256 | > 256 | > 256 | > 256 | – |
| CN(C)CCCNC(=O)CNCc1ccc2cccc(NS(=O)(=O)c3ccc(C(F)(F)F)cc3)c2n1 [ZDR261, N-(3-(Dimethylamino)propyl)-2-(((8-((4-(trifluoromethyl)phenyl)sulfonamido)quinolin-2-yl)methyl)amino)acetamide di-trifluoroacetate] | – | – | – | – | – | – | – | – | – | – | – | – | MIC (S. uberis ATCC 19436 [1]; ATCC19436, read-out: S. uberis ATCC 19436 MIC, No Zinc): 32 µg/mL (≈ 61.1 µM); MIC (S. uberis ATCC 19436 [1]; ATCC19436, read-out: S. uberis ATCC 19436 MIC, Zinc (50 μM)): 16 µg/mL (≈ 30.6 µM); MIC (S. aureus ATCC 6538 [2]; ATCC6538, read-out: S. aureus ATCC 6538 MIC, No Zinc): 32 µg/mL (≈ 61.1 µM); MIC (S. aureus ATCC 6538 [2]; ATCC6538, read-out: S. aureus ATCC 6538 MIC, Zinc (50 μM)): 32 µg/mL (≈ 61.1 µM); MIC (E. coli ATCC 10596; ATCC 10536 / ATCC 10596, read-out: E. coli ATCC 10536 MIC, No Zinc): 64 µg/mL (≈ 122 µM); MIC (E. coli ATCC 10596; ATCC 10536 / ATCC 10596, read-out: E. coli ATCC 10536 MIC, Zinc (50 μM)): 64 µg/mL (≈ 122 µM); MBC (S. uberis ATCC 19436 [3]; ATCC19436, read-out: S. uberis ATCC 19436 MBC, No Zinc): 16 µg/mL (≈ 30.6 µM); MBC (S. uberis ATCC 19436 [3]; ATCC19436, read-out: S. uberis ATCC 19436 MBC, Zinc (50 μM)): 16 µg/mL (≈ 30.6 µM); MBC (S. aureus ATCC 6538 [4]; ATCC6538, read-out: S. aureus ATCC 6538 MBC, No Zinc): 128 µg/mL (≈ 244 µM); MBC (S. aureus ATCC 6538 [4]; ATCC6538, read-out: S. aureus ATCC 6538 MBC, Zinc (50 μM)): 64 µg/mL (≈ 122 µM); MBC (E. coli ATCC 10536; ATCC10536, read-out: E. coli ATCC 10536 MBC, No Zinc): > 256 µg/mL; MBC (E. coli ATCC 10536; ATCC10536, read-out: E. coli ATCC 10536 MBC, Zinc (50 μM)): > 256 µg/mL |
| CN(C)Cc1ccc2cccc(NS(=O)(=O)c3ccc(C(F)(F)F)cc3)c2n1.Cl [ZDR022-HCl, N-(2-((Dimethylamino)methyl)quinolin-8-yl)-4-(trifluoromethyl)-benzenesulfonamide HCl] | 256 | 0.125 | 64 | 4 | > 256 | > 256 | > 256 | 0.125 | 128 | 256 | > 256 | > 256 | – |

More lines, in order of falling MIC (S. uberis ATCC 19436 [1]; [5]), values ahead:

| MIC (S. uberis ATCC 19436 [1]; [5]) [µg/mL] | MIC (S. uberis ATCC 19436 [1]; [6]) [µg/mL] | MIC (S. aureus ATCC 6538 [2]; [7]) [µg/mL] | MIC (S. aureus ATCC 6538 [2]; [8]) [µg/mL] | MIC (E. coli ATCC 10596; [9]) [µg/mL] | MIC (E. coli ATCC 10596; [10]) [µg/mL] | SMILES | MBC (S. uberis ATCC 19436 [3]; [11]) [µg/mL] | MBC (S. uberis ATCC 19436 [3]; [12]) [µg/mL] | MBC (S. aureus ATCC 6538 [4]; [13]) [µg/mL] | MBC (S. aureus ATCC 6538 [4]; [14]) [µg/mL] | MBC (E. coli ATCC 10536; [15]) [µg/mL] | MBC (E. coli ATCC 10536; [16]) [µg/mL] | other results |
| --- | --- | --- | --- | --- | --- | --- | --- | --- | --- | --- | --- | --- | --- |
| 32 (≈ 65.9 µM) | 16 (≈ 33 µM) | 32 (≈ 65.9 µM) | 16 (≈ 33 µM) | 256 (≈ 527 µM) | 64 (≈ 132 µM) | O=S(=O)(Nc1cccc2ccc(CNC(CO)(CO)CO)nc12)c1ccc(C(F)(F)F)cc1 [ZDR102, N-(2-(((1,3-Dihydroxy-2-(hydroxymethyl)propan-2-yl)amino)methyl)quinolin-8-yl)-4-(trifluoromethyl)benzenesulfonamide] | 32 (≈ 65.9 µM) | 16 (≈ 33 µM) | 128 (≈ 264 µM) | 32 (≈ 65.9 µM) | 256 (≈ 527 µM) | > 256 | – |
| 8 (≈ 20.2 µM) | 0.125 (≈ 0.316 µM) | 4 (≈ 10.1 µM) | 4 (≈ 10.1 µM) | > 256 | > 256 | O=S(=O)(Nc1cccc2ccc(/C=N/O)nc12)c1ccc(C(F)(F)F)cc1 [ZDR125, (E)-N-(2-((Hydroxyimino)methyl)quinolin-8-yl)-4-(trifluoromethyl)benzenesulfonamide] | 8 (≈ 20.2 µM) | 0.5 (≈ 1.26 µM) | > 256 | > 256 | > 256 | > 256 | – |
| 8 (≈ 16.2 µM) | 0.5 (≈ 1.02 µM) | 16 (≈ 32.5 µM) | 16 (≈ 32.5 µM) | 64 (≈ 130 µM) | > 256 | O=S(=O)(Nc1cccc2ccc(CNCCN3CCCCC3)nc12)c1ccc(C(F)(F)F)cc1 [ZDR111, N-(2-(((2-(Piperidin-1-yl)ethyl)amino)methyl)quinolin-8-yl)-4-(trifluoromethyl)benzenesulfonamide] | 8 (≈ 16.2 µM) | 1 (≈ 2.03 µM) | 16 (≈ 32.5 µM) | 16 (≈ 32.5 µM) | > 256 | > 256 | – |
